Source: paper PMC7946891, “Versatility in acyltransferase activity completes chicoric acid biosynthesis in purple coneflower” (Nature Communications, 2021)

Target: T1, EpHCT (Echinacea purpurea, UniProt A0A890VVY1)
T1 construct: full-length CDS, N-terminal 6xHis (pDEST17), E. coli BL21(DE3), Ni-NTA purified
Assay: in vitro enzyme assay, LC-HRMS product detection
Type: biochemical

T1 sequence (A0A890VVY1 1-434): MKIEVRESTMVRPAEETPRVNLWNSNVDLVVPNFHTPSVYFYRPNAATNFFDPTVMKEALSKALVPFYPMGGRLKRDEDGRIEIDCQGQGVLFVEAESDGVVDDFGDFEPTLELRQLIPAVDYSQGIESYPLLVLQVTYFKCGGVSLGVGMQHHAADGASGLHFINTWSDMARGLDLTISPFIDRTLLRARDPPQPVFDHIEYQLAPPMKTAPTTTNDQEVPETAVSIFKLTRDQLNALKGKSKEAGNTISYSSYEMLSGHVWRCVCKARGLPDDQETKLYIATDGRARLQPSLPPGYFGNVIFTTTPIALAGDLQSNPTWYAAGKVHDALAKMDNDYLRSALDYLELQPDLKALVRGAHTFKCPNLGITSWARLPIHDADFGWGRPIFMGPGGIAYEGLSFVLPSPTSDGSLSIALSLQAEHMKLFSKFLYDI

Row | Structure (SMILES) | in vitro enzyme assay, LC-HRMS product detection (p-coumaroyl CoA or caffeoyl CoA as acyl donor) | in vitro enzyme assay, LC-HRMS product detection (shikimic acid as acyl acceptor)
1 | O=C(O)C1=C[C@@H](O)[C@@H](O)[C@H](O)C1 [shikimic acid] | production of p-coumaroyl shikimic acid using p-coumaroyl CoA and shikimic acid as substrates | –
2 | CC(C)(COP(=O)(O)OP(=O)(O)OC[C@H]1O[C@@H](n2cnc3c(N)ncnc32)[C@H](O)[C@@H]1OP(=O)(O)O)[C@@H](O)C(=O)NCCC(=O)NCCSC(=O)/C=C/c1ccc(O)cc1 [p-coumaroyl CoA] | – | production of p-coumaroyl shikimic acid using p-coumaroyl CoA and shikimic acid as substrates
